Reference: paper PMC12560751 (RSC Advances, 2025)

What was measured:
AChE [1] = target: T1, AChE (Homo sapiens, UniProt P22303); assay: Anticholinesterase activity, modified colorimetric Ellman method; assay type: biochemical
BChE = BChE (Homo sapiens, UniProt P06276); assay: as above; assay type: biochemical
hMAO A = target: T2, hMAO A (Homo sapiens, UniProt P21397); assay: MAO A inhibition, fluorometric method; assay type: biochemical
T2 sequence (P21397 1-527): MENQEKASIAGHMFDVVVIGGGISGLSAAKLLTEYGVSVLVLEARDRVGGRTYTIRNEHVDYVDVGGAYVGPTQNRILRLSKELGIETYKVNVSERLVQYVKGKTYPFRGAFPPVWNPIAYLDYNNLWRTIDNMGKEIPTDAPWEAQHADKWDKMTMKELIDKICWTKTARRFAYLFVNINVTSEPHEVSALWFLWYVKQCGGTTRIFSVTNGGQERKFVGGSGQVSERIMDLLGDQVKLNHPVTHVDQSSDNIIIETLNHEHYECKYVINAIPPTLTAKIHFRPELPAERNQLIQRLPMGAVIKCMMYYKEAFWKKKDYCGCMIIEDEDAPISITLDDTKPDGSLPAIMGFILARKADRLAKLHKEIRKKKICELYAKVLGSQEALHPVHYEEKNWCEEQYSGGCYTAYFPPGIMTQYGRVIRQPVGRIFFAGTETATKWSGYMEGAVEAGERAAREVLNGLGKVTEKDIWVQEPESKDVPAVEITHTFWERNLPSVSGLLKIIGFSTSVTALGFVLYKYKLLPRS

recombinant hMAO B = target: T3, recombinant hMAO B (Homo sapiens, UniProt P27338); assay: MAO B inhibition, fluorometric method; assay type: biochemical
T3 sequence (P27338 1-520): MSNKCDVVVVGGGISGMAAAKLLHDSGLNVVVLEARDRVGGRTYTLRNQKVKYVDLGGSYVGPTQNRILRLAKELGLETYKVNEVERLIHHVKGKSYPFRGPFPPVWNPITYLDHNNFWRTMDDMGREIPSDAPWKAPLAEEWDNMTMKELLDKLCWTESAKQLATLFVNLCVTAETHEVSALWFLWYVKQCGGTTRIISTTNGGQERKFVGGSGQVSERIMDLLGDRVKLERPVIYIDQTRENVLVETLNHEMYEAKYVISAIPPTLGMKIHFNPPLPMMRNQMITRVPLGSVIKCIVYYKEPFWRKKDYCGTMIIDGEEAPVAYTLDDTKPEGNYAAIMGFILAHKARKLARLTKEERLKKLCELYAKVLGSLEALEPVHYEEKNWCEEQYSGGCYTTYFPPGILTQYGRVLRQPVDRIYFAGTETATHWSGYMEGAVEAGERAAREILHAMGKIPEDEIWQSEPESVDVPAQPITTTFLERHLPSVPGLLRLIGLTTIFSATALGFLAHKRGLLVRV

AChE [2] = target: T1, AChE; assay: Kinetic studies of AChE enzyme inhibition; assay type: biochemical; conditions: Lineweaver-Burk plot
NIH/3T3 cell lines = assay: Cytotoxicity, 24-hour MTT assay; assay type: cell-based; conditions: for IC50: Mus musculus, NIH3T3, 24 h, read-out: IC50 against NIH/3T3

Chain of BChE (P06276 29-602, species assumed): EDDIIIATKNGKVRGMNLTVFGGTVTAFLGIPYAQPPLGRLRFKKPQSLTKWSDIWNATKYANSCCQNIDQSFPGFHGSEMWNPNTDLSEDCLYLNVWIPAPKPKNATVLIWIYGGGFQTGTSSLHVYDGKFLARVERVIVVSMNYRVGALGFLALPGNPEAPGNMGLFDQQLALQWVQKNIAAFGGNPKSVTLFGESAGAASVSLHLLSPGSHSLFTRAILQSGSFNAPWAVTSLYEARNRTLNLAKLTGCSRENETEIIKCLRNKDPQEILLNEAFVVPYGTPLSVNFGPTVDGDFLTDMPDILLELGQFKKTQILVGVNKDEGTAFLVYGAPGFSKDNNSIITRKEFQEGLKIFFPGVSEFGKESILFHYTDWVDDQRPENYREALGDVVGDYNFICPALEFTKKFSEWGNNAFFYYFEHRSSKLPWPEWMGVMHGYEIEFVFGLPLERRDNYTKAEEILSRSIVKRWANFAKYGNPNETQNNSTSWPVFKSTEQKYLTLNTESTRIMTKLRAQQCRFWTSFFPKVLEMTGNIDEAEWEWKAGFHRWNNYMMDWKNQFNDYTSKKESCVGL
T1 sequence (P22303 32-614): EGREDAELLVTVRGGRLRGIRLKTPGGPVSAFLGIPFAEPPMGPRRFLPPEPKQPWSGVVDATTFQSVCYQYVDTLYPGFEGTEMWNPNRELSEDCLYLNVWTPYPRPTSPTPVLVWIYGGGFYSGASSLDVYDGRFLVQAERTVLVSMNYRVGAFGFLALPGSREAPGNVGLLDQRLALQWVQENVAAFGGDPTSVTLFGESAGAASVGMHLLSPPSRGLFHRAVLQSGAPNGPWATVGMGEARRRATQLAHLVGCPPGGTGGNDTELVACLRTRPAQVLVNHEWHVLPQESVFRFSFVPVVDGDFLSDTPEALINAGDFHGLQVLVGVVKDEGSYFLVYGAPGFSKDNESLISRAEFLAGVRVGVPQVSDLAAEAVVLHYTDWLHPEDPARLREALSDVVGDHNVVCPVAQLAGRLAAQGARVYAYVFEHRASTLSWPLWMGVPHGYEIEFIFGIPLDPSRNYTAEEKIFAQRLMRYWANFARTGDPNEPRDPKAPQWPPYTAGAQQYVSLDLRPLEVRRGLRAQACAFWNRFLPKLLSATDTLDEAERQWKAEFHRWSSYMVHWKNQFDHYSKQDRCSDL

Row | SMILES | IC50 (AChE [1]) | inhibition at 100 µM (AChE [1]; read-out: AChE % inhibition) | inhibition at 1000 µM (AChE [1]; read-out: AChE % inhibition) | Selectivity and indexes (AChE [1]; selective for AChE (over BChE)) | IC50 (BChE) | inhibition at 100 µM (BChE; read-out: BChE % inhibition) | inhibition at 1000 µM (BChE; read-out: BChE % inhibition) | IC50 (hMAO A) | inhibition at 100 µM (hMAO A; read-out: MAO A % inhibition) | inhibition at 1000 µM (hMAO A; read-out: MAO A % inhibition) | IC50 (recombinant hMAO B; MAO B IC50, tables) | IC50 (recombinant hMAO B; MAO B IC50, text) | inhibition at 100 µM (recombinant hMAO B; read-out: MAO B % inhibition) | inhibition at 1000 µM (recombinant hMAO B; read-out: MAO B % inhibition) | type of inhibition (AChE [2]) | IC50 (NIH/3T3 cell lines) | cytotoxicity (in words) (NIH/3T3 cell lines; NIH/3T3, MTT)
1 | COc1ccc(C(=O)C=Cc2ccc(NC(=O)CN3CCN(C(C)=O)CC3)cc2)cc1OC [Compound 4g, 2-(4-Acetylpiperazin-1-yl)-N-(4-(3-(3,4-dimethoxyphenyl)-3-oxoprop-1-en-1-yl)phenyl)acetamide] | 0.027 ± 0.001 µM | 96.4 ± 2.5% | 98 ± 2.56% | AChE/>1000 | > 1000 µM | 29.9 ± 0.92% | 36.4 ± 0.954% | > 100 µM | 39.4 ± 1.11% | 69 ± 2.52% | 0.114 ± 0.003 µM | < 1 µM | 89.2 ± 2.17% | 92.3 ± 2.16% | reversible and mixed-type inhibitor | 32.2 µM | not cytotoxic
2 | COc1cccc2c1C(=O)c1c(O)c3c(c(O)c1C2=O)C[C@@](O)(C(=O)CO)C[C@@H]3O[C@H]1C[C@H](N)[C@H](O)[C@H](C)O1 [Doxorubicin, reference compound] |  |  |  |  |  |  |  |  |  |  |  |  |  |  |  | > 1000 µM | 
